The numbers were not newly measured in patent US6533967B1, “Initiating system for solid polyester granule manufacture” (Orica Australia Pty Ltd, priority 1999, dated 2003), which cites them from elsewhere.

Each structure is given as a SMILES string.

The subject of the data set is rat. The note with it: inhalation of vapours, 4 h.

As for `CCN(CC)c1ccccc1` [N,N-diethylaniline], the LC50 rat is 1920 mg/m^3/4 h.
